According to the supplement of paper PMC10307832:

Tests used:
Assay in all cases: relative viability (nuclei count vs DMSO), 5 days (fraction); higher = more cells survive
AZD6482 + Alpelisib = compound: Cc1cc([C@@H](C)Nc2ccccc2C(=O)O)c2nc(N3CCOCC3)cc(=O)n2c1 [AZD6482] + Cc1nc(NC(=O)N2CCC[C@H]2C(N)=O)sc1-c1ccnc(C(C)(C)C(F)(F)F)c1 [Alpelisib] (partner 2 µM)
Method in brief: (§1)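 Each reported value is a median over duplicate plates. It expresses relative viability: treated-well nuclei count divided by vehicle-well nuclei count. Lung cancer cell lines in 1536-well plates were dosed by pin tool a day after seeding, alone with one drug or with a fixed anchor-drug dose plus five library-drug doses (not always all listed) in √10 steps, and nuclei were counted after 5 days.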

AZD6482 + OSI-027 = compound: Cc1cc([C@@H](C)Nc2ccccc2C(=O)O)c2nc(N3CCOCC3)cc(=O)n2c1 [AZD6482] + COc1cccc2cc(-c3nc([C@H]4CC[C@H](C(=O)O)CC4)n4ncnc(N)c34)[nH]c12 [OSI-027] (partner 0.5 µM)
Method in brief: as §1

AZD6482 + Vorinostat = compound: Cc1cc([C@@H](C)Nc2ccccc2C(=O)O)c2nc(N3CCOCC3)cc(=O)n2c1 [AZD6482] + O=C(CCCCCCC(=O)Nc1ccccc1)NO [Vorinostat] (partner 1 µM)
Method in brief: as §1

[1] = compound: COc1cc2nc(N3CCCN(C)CC3)nc(NC3CCN(Cc4ccccc4)CC3)c2cc1OC + Cc1nc(Nc2ncc(C(=O)Nc3c(C)cccc3Cl)s2)cc(N2CCN(CCO)CC2)n1 [Dasatinib] (partner 0.075 µM)
Method in brief: as §1

Cell Line	relative viability (AZD6482 + Alpelisib; first compound 0.08 µM)	relative viability (AZD6482 + Alpelisib; first compound 0.253 µM)	relative viability (AZD6482 + Alpelisib; first compound 0.8 µM)	relative viability (AZD6482 + Alpelisib; first compound 2.53 µM)	relative viability (AZD6482 + Alpelisib; first compound 8 µM)	relative viability (AZD6482 + OSI-027; first compound 0.08 µM)	relative viability (AZD6482 + OSI-027; first compound 0.253 µM)	relative viability (AZD6482 + OSI-027; first compound 0.8 µM)	relative viability (AZD6482 + OSI-027; first compound 2.53 µM)	relative viability (AZD6482 + OSI-027; first compound 8 µM)	relative viability (AZD6482 + Vorinostat; first compound 0.08 µM)	relative viability (AZD6482 + Vorinostat; first compound 0.253 µM)	relative viability (AZD6482 + Vorinostat; first compound 0.8 µM)	relative viability (AZD6482 + Vorinostat; first compound 2.53 µM)	relative viability (AZD6482 + Vorinostat; first compound 8 µM)	relative viability ([1]; first compound 0.2 µM)	relative viability ([1]; first compound 0.6325 µM)	relative viability ([1]; first compound 2 µM)	relative viability ([1]; first compound 6.325 µM)
NCI-H1666	0.609	0.748	0.751	0.64	0.738	0.684	0.765	0.918	0.66	0.8	0.848	1.04	1.04	0.813	1.02	0.819	0.847	0.788	0.718
HCC-366	0.171	0.165	0.208	0.105	0.188	1.01	0.801	0.906	0.574	0.515	0.269	0.26	0.457	0.269	0.203	0.697	0.599	0.504	0.571
SK-MES-1	0.515	0.658	0.459	0.269	0.433	0.502	0.554	0.417	0.302	0.293	0.842	1.05	1.02	0.594	0.684	0.41	0.374	0.386	0.171
SW 1573	0.518	0.533	0.47	0.303	0.407	0.662	0.52	0.558	0.341	0.347	0.766	0.681	0.654	0.58	0.48	0.453	0.454	0.665	0.295
NCI-H661	0.656	0.454	0.486	–	0.419	0.651	0.722	0.649	0.4	0.435	0.794	0.825	0.914	0.736	0.846	0.957	0.955	0.966	0.83
PC-3 [JPC-3]	0.855	0.997	0.983	0.877	0.97	0.654	0.732	0.723	0.502	0.633	0.766	0.797	0.84	0.457	0.571	0.954	0.908	1.08	1
LC-2-ad	0.704	0.597	0.668	0.467	0.507	0.734	0.757	0.807	0.581	0.565	0.703	0.702	0.854	0.605	0.625	0.493	0.618	0.804	0.65
CAL-12T	0.902	0.661	0.901	0.535	0.721	0.706	0.715	0.519	0.348	0.342	0.715	0.666	0.737	0.548	0.556	0.37	0.325	0.54	0.294
RERF-LC-KJ	0.653	0.614	0.6	0.559	0.637	0.547	0.496	0.458	0.497	0.399	0.648	0.616	0.557	0.648	0.514	0.805	0.812	1.01	0.567
BEN	0.866	0.886	1.11	0.828	0.947	0.314	0.302	0.273	0.276	0.299	0.541	0.546	0.594	0.467	0.578	0.384	0.389	0.36	0.351
EMC-BAC-2	0.639	0.624	0.619	0.571	0.617	0.394	0.376	0.347	0.273	0.316	0.534	0.413	0.526	0.341	0.316	0.345	0.305	0.327	0.371
LU99A	0.452	0.441	0.619	0.372	0.421	0.301	0.276	0.325	0.203	0.3	0.473	0.403	0.49	0.414	0.409	0.588	0.552	0.47	0.433
ABC-1	0.741	0.819	1.05	0.702	0.826	0.51	0.478	0.358	0.401	0.406	1.11	0.877	1.01	0.83	0.986	0.531	0.525	0.568	0.581
NCI-H2170	0.662	0.666	0.713	0.56	0.681	0.66	0.631	0.612	0.531	0.677	0.742	0.695	0.767	0.677	0.578	0.658	0.594	0.638	0.583
NCI-H2347	–	0.743	0.891	0.514	0.719	0.222	0.268	0.317	0.194	0.223	0.386	0.516	0.522	0.399	0.353	0.36	0.339	0.304	0.274
NCI-H1993	0.701	0.653	–	–	0.767	0.502	0.521	0.516	0.529	0.534	0.742	0.73	0.569	0.376	0.47	0.568	0.657	0.657	0.574
NCI-H322M	0.574	0.553	0.573	0.474	0.48	0.523	0.497	0.531	0.317	0.414	0.846	0.818	0.812	0.473	0.565	0.258	0.281	0.274	0.26
